Experimental data reported in patent US8841290B2, “Substituted tetrahydronaphthalenes, method for the production thereof, and use thereof as drugs” (Sanofi, priority 2009, dated 2014).
≈ marks a conversion by molar mass, not a printed value. Where two headings read alike, the source gives them in different places.

Tests used:
human MCH receptor = target: T1, human MCH receptor (Homo sapiens, UniProt Q99705); test: calcium mobilization assay (FLIPR), functional IC50 of MCH1R antagonists; assay type: cell-based
T1 construct: expressed in transfected cells
Source text: A difference from the reference was, however, the use of the plasmid pEAK8 from EDGE Biosystems (USA) for the construction of the expression vector. The host used for the transfection was a transformed HEK cell line named “PEAK Stable Cells” (likewise from EDGE Biosystems). Functional measurements of the cellular calcium flux after addition of agonist (MCH) in the presence of ligand of the invention took place with the aid of the FLIPR apparatus from Molecular Devices (USA), using protocols of the apparatus manufacturer.

[1] = nephelometric (kinetic) solubility determination, phosphate buffer pH 7.4; assay type: physicochemical; details: for solubility kinetic: aqueous buffer, kinetic from dmso stock
Description: A DMSO solution of the test compound (2.5 mM; 0.5 μl) is pipetted into 200 μl of an aqueous test solution (e.g. phosphate-buffered saline, 10×, 1M, Sigma, adjusted to 10 mM, pH 7.4) in a 96-well microtiter plate, and the turbidity is measured at the resulting theoretical concentration for the test compound of 6.25 μM using a nephelometer (e.g. Nephelostar Galaxy, BMG Labtech). The concentration of the test compound in the aqueous test solution is then raised to a theoretical 12.5 μM by adding further DMSO solution (2.5 mM; 0.5 μl), and the turbidity measurement is repeated. Further additions of DMSO solutions (1 μl, 2.5 mM; 0.5 μl, 10 mM; then 9×1 μl, 10 mM resulting in theoretical concentrations of 25 μM, 50 μM, 100 μM, 150 μM, 200 μM, 250 μM, 300 μM, 350 μM, 400 μM, 450 μM and 500 μM) with turbidity measurement in between complete the measurement process.
Evaluation: The turbidity values from the nephelometer are plotted against the theoretical concentration of the test compound in the aqueous test solution. As soon as a significant turbidity is detected (e.g. 5 times above the control value of the aqueous test solution) at a theoretical concentration, the level of concentration below this is stated to be the solubility limit of the test compound in the test solution. Thus, the maximum possible measurement range emerges as values<6.25 μM, 6.25-500 μM and >500 μM.

[2] = recombinant HEK293 cell line expressing the human MCH receptor, calcium flux after addition of agonist (MCH), read-out: IC50
[3] = nephelometry, Table 8, reference compounds versus inventive examples

T1 sequence (Q99705 whole entry): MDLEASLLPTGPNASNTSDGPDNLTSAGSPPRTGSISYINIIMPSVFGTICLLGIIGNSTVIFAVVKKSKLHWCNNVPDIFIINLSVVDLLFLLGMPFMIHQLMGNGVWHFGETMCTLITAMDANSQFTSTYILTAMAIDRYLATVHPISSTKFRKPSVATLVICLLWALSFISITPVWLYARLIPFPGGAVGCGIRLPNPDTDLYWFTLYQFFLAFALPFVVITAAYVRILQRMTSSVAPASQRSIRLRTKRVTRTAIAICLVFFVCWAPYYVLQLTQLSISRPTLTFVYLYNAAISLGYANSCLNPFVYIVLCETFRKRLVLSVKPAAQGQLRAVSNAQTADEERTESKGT

Compound | IC50 (human MCH receptor; [2]) [nM] | solubility kinetic ([1]; nephelometric, Table 7) [µg/mL] | pH 7.4 (solubility) [1, 3] [mg/ml] | solubility kinetic [1, 3] [µg/mL] | IC50 (human MCH receptor) [nM]
CCCCOc1ccc(C(=O)N[C@H]2CCc3cc(CN4CCCC4)ccc3C2)cc1 [Example 6-01] | 127 | 13 (≈ 32 µM) | 0.013 | – | –
CN(C(=O)c1ccc(OCC2CC2)cc1)[C@H]1CCc2cc(CNCC3(C)CCOCC3)ccc2C1 [Example 1-08] | 126 | > 295 | – | – | –
CN(C(=O)c1ccc(-c2ccc(F)cc2)cc1)[C@H]1CCc2cc(CN3CCCC3)ccc2C1 [Ref-2, reference compound] | – | – | – | 7 (≈ 15.8 µM) | –
CN(C(=O)c1ccc(OCC2CC2)cc1)[C@H]1CCc2cc(CNCC3(C)CCCO3)ccc2C1 (stereo partly shown) [Example 1-11] | 172 | > 288 | – | – | –
CN(C(=O)c1ccc(OCC2CC2)cc1)[C@H]1CCc2cc(CN3CCCC3)ccc2C1 [Example 6-05] | 153 | 199 (≈ 475 µM) | – | – | –
CC(C)OCCNCc1ccc2c(c1)CC[C@H](N(C)C(=O)c1ccc(OCC3CC3)cc1)C2 [Example 7-26] | 149 | > 282 | – | – | –
CC[C@H](O)COc1ccc(C(=O)N[C@H]2CCc3cc(CN4CCCC4)ccc3C2)cc1 [Example 6-02] | 223 | > 268 | >0.268 | – | –
CN(C(=O)c1ccc(OCC2CC2)cn1)[C@H]1CCc2cc(CNCC3CCCC3)ccc2C1 [Example 7-30] | 156 | > 281 | – | – | –
O=C(N[C@H]1CCc2cc(CN3CCCCCC3)ccc2C1)c1ccc(OCC2CC2)cc1 [Example 7-12] | 94 | 3 (≈ 6.93 µM) | – | – | –
CN(C(=O)c1ccc(OCC2CC2)cn1)[C@H]1CCc2cc(CN3CCC(C)(C)CC3)ccc2C1 [Example 7-28] | 152 | > 288 | – | – | –
CN(C(=O)c1ccc(OCC2CC2)cc1)[C@H]1CCc2cc(CNCC3CC3)ccc2C1 [Example 7-08] | 420 | > 266 | – | – | –
CN(C(=O)c1ccc(OCC2CC2)cc1)[C@H]1CCc2cc(CNCC3(C)COC3)ccc2C1 [Example 1-05] | 125 | > 281 | – | – | –
CCN(Cc1ccc2c(c1)CC[C@H](N(C)C(=O)c1ccc(OCC3CC3)cc1)C2)CC1CCOCC1 [Example 1-14] | 507 | 30 (≈ 61.1 µM) | – | – | –
CC(C)COc1ccc(C(=O)N(C)[C@H]2CCc3cc(CNCC4CCOCC4)ccc3C2)nc1 [Example 2-09] | 360 | > 290 | – | – | –
CN(C(=O)c1ccc(OCC2CC2)cc1)[C@H]1CCc2cc(CNCC(C)(C)C)ccc2C1 [Example 7-11] | 898 | > 274 | – | – | –
CCN(CC)Cc1ccc2c(c1)CC[C@H](N(C)C(=O)c1ccc(OCC3CC3)cc1)C2 [Example 7-18] | 668 | > 267 | – | – | –
CN(C(=O)c1ccc(NC(=O)C(F)(F)F)cc1)[C@H]1CCc2cc(CNCC3CCOCC3)ccc2C1 [Example 2-02] | 1360 | > 309 | – | – | –
CN(C(=O)c1ccc(OCC2CC2)cc1)[C@H]1CCc2cc(CN3CCC(O)CC3)ccc2C1 [Example 7-06] | 508 | > 281 | – | – | –
C[C@H]1CC[C@H](c2ccc3c(c2)CC[C@H](N(C)C(=O)c2ccc(OCC4CC4)cc2)C3)N1C [Example 5-04] | 134 | > 273 | – | – | –
O=C(N[C@H]1CCc2cc(CN3CCCCCC3)ccc2C1)c1ccc(OCC2CCC2)cc1 [Example 6-08] | 168 | < 4 | – | – | –
CN(C(=O)c1ccc(OCC2CC2)cc1)[C@H]1CCc2cc(CN3CCC(C(C)(C)O)CC3)ccc2C1 [Example 7-04] | 141 | > 302 | – | – | –
CN(C(=O)c1ccc(OCC2CC2)cc1)[C@H]1CCc2cc(CNCC3CCOC3)ccc2C1 (stereo partly shown) [Example 1-04] | 116 | > 281 | – | – | –
O=C(N[C@H]1CCc2cc(CN3CCCC3)ccc2C1)c1ccc(-c2ccc(F)cc2)cc1 [Ref-1, reference compound] | – | – | – | 3 (≈ 7 µM) | –
C[C@H]1CC[C@H](c2ccc3c(c2)CC[C@H](N(C)C(=O)c2ccc(OCC4CC4)cc2)C3)N1 [Example 4-02, 4-Cyclopropylmethoxy-N-methyl-N—[(S)-6-((2R,5S)-5-methylpyrrolidin-2-yl)-1,2,3,4-tetrahydronaphthalen-2-yl]benzamide] | 228 | 10 (≈ 23.9 µM) | – | – | –

Compound | IC50 (human MCH receptor; [2]) [nM] | solubility kinetic ([1]; nephelometric, Table 7) [µg/mL] | pH 7.4 (solubility) [1, 3] [mg/ml] | solubility kinetic [1, 3] [µg/mL] | IC50 (human MCH receptor) [nM]
CN(C(=O)c1ccc(OCC2CC2)cc1)[C@H]1CCc2cc([C@H]3CCCN3)ccc2C1 [Example 4-01, 4-Cyclopropylmethoxy-N-methyl-N—((S)—(R)-6-pyrrolidin-2-yl-1,2,3,4-tetrahydronaphthalen-2-yl)benzamide] | 136 | > 221 | – | – | –
CCC1(CNCc2ccc3c(c2)CC[C@H](N(C)C(=O)c2ccc(OCC4CC4)cn2)C3)CC1 [Example 7-31] | 190 | > 281 | – | – | –
O=C(N[C@H]1CCc2cc(CN3CCCCCC3)ccc2C1)c1ccc(COC2CCC2)cc1 [Example 6-06] | 75 | 28 (≈ 62.7 µM) | – | – | –
CCN1[C@@H](c2ccc3c(c2)CC[C@H](N(C)C(=O)c2ccc(OCC4CC4)cc2)C3)CC[C@@H]1C [Example 5-05] | 519 | 168 (≈ 376 µM) | – | – | –
O=C(N[C@H]1CCc2cc(CN3C[C@@H]4CC[C@H]3C4)ccc2C1)c1ccc(OCC2CC2)cc1 [Example 7-14] | 92 | > 272 | – | – | –
CCN1CCC[C@@H]1c1ccc2c(c1)CC[C@H](N(C)C(=O)c1ccc(OCC3CC3)cc1)C2 [Example 5-02] | 152 | > 273 | – | – | –
CN(C(=O)c1ccc(OCC2CC2)cc1)[C@H]1CCc2cc(CN3CCCCCC3)ccc2C1 [Example 7-15] | 336 | > 280 | – | – | –
CN(C(=O)c1ccc(OCC2CC2)cc1)[C@H]1CCc2cc(CNCC3CCCOC3)ccc2C1 (stereo partly shown) [Example 1-07] | 154 | > 288 | – | – | –
O=C(N[C@H]1CCc2cc(CN3CCCCCC3)ccc2C1)c1ccc(NC(=O)C2CCCC2)cc1 [Example 6-07] | – | < 4 | – | – | 332
CN(Cc1ccc2c(c1)CC[C@H](N(C)C(=O)c1ccc(OCC3CC3)cc1)C2)CC1CCOCC1 [Example 1-13] | 284 | > 295 | – | – | –
CCCOc1ccc(C(=O)N(C)[C@H]2CCc3cc(CNCC4CCOCC4)ccc3C2)nc1 [Example 2-08] | 220 | > 283 | – | – | –
CN(C(=O)c1ccc(OCC2CC2)cc1)[C@H]1CCc2cc(CNCC3COCCO3)ccc2C1 (stereo partly shown) [Example 1-09] | 124 | > 289 | – | – | –
CN(C(=O)c1ccc(C2CCCCC2)cc1)[C@H]1CCc2cc(CNCC3CCOCC3)ccc2C1 [Example 2-01, 4-Cyclohexyl-N-methyl-N—((S)-6-{[(tetrahydropyran-4-ylmethyl)amino]methyl}-1,2,3,4-tetrahydronaphthalen-2-yl)benzamide] | 1330 | > 294 | – | – | –
CN(C(=O)c1ccc(OCC2CC2)cc1)[C@H]1CCc2cc(C3CCCCN3)ccc2C1 (stereo partly drawn) [Example 4-03, 4-Cyclopropylmethoxy-N-methyl-N—((S)-6-piperidin-2-yl-1,2,3,4-tetrahydronaphthalen-2-yl)-benzamide] | 788 | 10 (≈ 23.9 µM) | – | – | –
CN(C(=O)c1ccc(OCC2CC2)cc1)[C@H]1CCc2cc(CNCC3CCOCC3)ccc2C1 [Example 1-01, 4-Cyclopropylmethoxy-N-methyl-N—((S)-6-{[(tetrahydropyran-4-ylmethyl)amino]methyl}-1,2,3,4-tetrahydronaphthalen-2-yl)benzamide] | 121 | 153 (≈ 331 µM) | – | – | –
COCC(C)(C)CNCc1ccc2c(c1)CC[C@H](N(C)C(=O)c1ccc(OCC3CC3)cc1)C2 [Example 7-25] | 286 | > 289 | – | – | –
COC1CCN(Cc2ccc3c(c2)CC[C@H](N(C)C(=O)c2ccc(OCC4CC4)cc2)C3)CC1 [Example 7-05] | 625 | > 288 | – | – | –
CC1CCN(c2ccc(C(=O)N(C)[C@H]3CCc4cc(CNCC5CCOCC5)ccc4C3)cc2)CC1 [Example 2-03] | 1070 | > 302 | – | – | –
CN(C(=O)c1ccc(OCC2CC2)cc1)[C@H]1CCc2cc(CNC3CCCCC3)ccc2C1 [Example 7-07] | 336 | > 280 | – | – | –
CN1CCC[C@@H]1c1ccc2c(c1)CC[C@H](N(C)C(=O)c1ccc(OCC3CC3)cc1)C2 [Example 5-01] | 137 | > 266 | – | – | –
CN(C(=O)c1ccc(OCC2CC2)cn1)[C@H]1CCc2cc(CN3CC4CCC3CC4)ccc2C1 [Example 7-33] | 1100 | > 287 | – | – | –
CC1CCC(CNCc2ccc3c(c2)CC[C@H](N(C)C(=O)c2ccc(OCC4CC4)cc2)C3)O1 (stereo partly shown) [Example 1-12] | 165 | > 288 | – | – | –
CC(C)(C)CNCc1ccc2c(c1)CC[C@H](NC(=O)c1ccc(OCC3CC3)cc1)C2 [Example 7-13] | 93 | 7 (≈ 16.6 µM) | – | – | –
